Results taken from US10752588B2 (The Broad Institute, Inc., priority 2014, dated 2020).
Converted amounts (≈) assume the structure as drawn.

Legend:
human D2R/β-arrestin [1] = target: T1, human D2R/β-arrestin (Homo sapiens (Human), UniProt P14416); details: CHO-K1 cell line expressing human D2R/β-arrestin, β-arrestin and Gi/cAMP pathways, FIG. 1
human D2R/β-arrestin [2] = target: T1, human D2R/β-arrestin; test: β-Arrestin agonist assay (PathHunter); type: cell-based; details: CHO-K1 cell line expressing human D2R/β-arrestin
Procedure, shortened: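 Readout follows addition of Buffer:Emerald II:Galactor-Star reagent (19:5:1) to agonist-treated plates, measured as luminescence or fluorescence.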

human D2R/β-arrestin [3] = target: T1, human D2R/β-arrestin; test: cell-based; details: β-arrestin Antagonist, CHO-K1 cell line expressing human D2R/β-arrestin; quinpirole used as agonist
MDR1-MDCKII = MDR1-MDCKII permeability assay; type: in vitro ADME
From the text: MDR1-MDCKII Permeability Assay
This is a standard permeability assay that predicts brain penetration. It was ran by the CRO Absorption Systems (www.absorption.com/drug-discovery/permeability/cell-based/).

human D2R/β-arrestin [4] = target: T1, human D2R/β-arrestin; test: cell-based; details: cAMP Antagonist, CHO-K1 cell line expressing human D2R/β-arrestin; quinpirole used as agonist
D2 = D2 (Homo sapiens (Human), UniProt P14416); test: D2 radioligand binding assay
[5] = Microsomal stability, mouse
human D2R/β-arrestin [6] = target: T1, human D2R/β-arrestin; test: Gi/cAMP agonist assay (Lance Ultra cAMP, Forskolin); type: cell-based; details: CHO-K1 cell line expressing human D2R/β-arrestin
Procedure, shortened: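 Read-out was Lance Ultra competitive TR-FRET (Eu-cAMP tracer plus ULight-anti-cAMP) following forskolin-induced cAMP production. Before forskolin stimulation, compounds were pin-transferred onto the seeded cells for 10 min at 37 °C.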

plasma protein [7] = test: Plasma protein binding, mouse; type: in vitro ADME; details: plasma, read-out: Plasma Protein Binding % bound
Rotarod performance = type: in vivo; details: mice, 10 or 30 mg/kg, compared with clozaril at 3 mg/kg
Experimental: In the test, test animals are placed on a horizontally oriented, rotating cylinder (rod) suspended above a cage floor. The test animals naturally try to stay on the rotating cylinder, or rotarod, and avoid falling to the ground. Test animals are administered with various compounds (e.g., compounds of the invention or control compounds). The length of time that a given animal stays on this rotating rod is a measure of the animal's balance, coordination, physical condition, and motor-planning. The speed of the rotarod is mechanically driven, and can be held constant.
In the test, mice were placed on a horizontally oriented, rotating cylinder (rod) suspended above a cage floor, which was low enough not to injure the animal, but high enough to induce avoidance of fall. The mice naturally try to stay on the rotating cylinder, or rotarod, and avoid falling to the ground.

plasma protein [8] = test: Plasma protein binding, rat; type: in vitro ADME; details: plasma, read-out: Plasma Protein Binding % bound
Plasma stability, human = type: in vitro ADME
Solubility in PBS = type: physicochemical; details: aqueous buffer
Caco2 = Caco2 permeability; type: in vitro ADME; design: unit not given beside the values; details: for Caco2 A-B: A-B direction; for Caco2 B-A: B-A direction
[9] = Microsomal stability, rat; type: in vitro ADME
Plasma stability, rat = type: in vitro ADME
plasma protein [10] = test: Plasma protein binding, human; type: in vitro ADME; details: plasma, read-out: Plasma Protein Binding % bound
[11] = Microsomal stability, human; type: in vitro ADME
[12] = Plasma protein binding, mouse; type: in vitro ADME; details: plasma, read-out: Plasma Protein Binding % bound
[13] = Plasma protein binding, rat; type: in vitro ADME; details: plasma, read-out: Plasma Protein Binding % bound
[14] = Plasma protein binding, human; type: in vitro ADME; details: plasma, read-out: Plasma Protein Binding % bound

T1 sequence (P14416 whole entry): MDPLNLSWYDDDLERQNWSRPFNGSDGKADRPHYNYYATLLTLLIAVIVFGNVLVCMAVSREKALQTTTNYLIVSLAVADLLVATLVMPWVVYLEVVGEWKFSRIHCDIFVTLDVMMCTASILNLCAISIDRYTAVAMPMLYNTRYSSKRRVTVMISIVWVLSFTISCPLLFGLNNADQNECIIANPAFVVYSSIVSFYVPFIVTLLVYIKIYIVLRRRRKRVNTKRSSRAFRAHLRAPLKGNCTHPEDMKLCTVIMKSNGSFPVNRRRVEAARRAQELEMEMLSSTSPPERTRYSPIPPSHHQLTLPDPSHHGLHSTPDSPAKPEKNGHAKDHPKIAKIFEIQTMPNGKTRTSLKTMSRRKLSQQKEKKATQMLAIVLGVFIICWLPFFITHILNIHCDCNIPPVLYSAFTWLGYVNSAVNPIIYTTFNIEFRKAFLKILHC
Sequence of D2 (P14416 whole entry): as above

SMILES | EC50 (human D2R/β-arrestin [2]) [nM] | IC50 (human D2R/β-arrestin [3]) [nM] | IC50 (human D2R/β-arrestin [4]) [nM] | Ki (D2) [nM] | Microsomal Stability: % remaining after 60 minutes [5] | EC50 (human D2R/β-arrestin [6]) [nM] | Plasma Stability: % remaining after 5 hours (Plasma stability, human) | solubility (Solubility in PBS) [µM] | Plasma Stability: % remaining after 5 hours (Plasma stability, mouse) | Caco2 A-B (Caco2) | Caco2 B-A (Caco2) | Microsomal Stability: % remaining after 60 minutes [9] [%] | Plasma Stability: % remaining after 5 hours (Plasma stability, rat) | Microsomal Stability: % remaining after 60 minutes [11] [%] | fraction unbound [12] | fraction unbound [13] | fraction unbound [14] | other results
CN(CC1CCN(CCOc2ccccc2)CC1)C(c1ccc(Cl)cc1)c1ccccn1 (stereo not shown) [Compound 79, 1-(4-chlorophenyl)-N-methyl-N-((1-(2-phenoxyethyl)piperidin-4-yl)methyl)-1-(pyridin-2-yl)methanamine] | > 30000 | 100 to 1000 | > 30000 | 100 to 1000 | m0% | < 100 |  |  |  |  |  |  |  |  |  |  |  | functional profile at D2R (antagonist mode) (human D2R/β-arrestin [1]): representative β-arrestin biased D2R antagonists; MDR1-MDCKII A-B (MDR1-MDCKII; A-B direction): 6.17; MDR1-MDCKII B-A (MDR1-MDCKII; B-A direction): 22.1
COc1cccc(C(NC(=O)C2CCN(CCOc3ccccc3)CC2)c2ccccn2)c1 (stereo not shown) [Compound 35] | > 30000 | 1000 to 10000 | 1000 to 10000 |  | 74% | 1000 to 10000 | 100% | 441 (≈ 196 µg/mL) | 98% | 26.7 | 46.7 | 80 | 99.6% | 83 |  |  |  | fraction unbound (plasma protein [7]): 0.074; catalepsy in the rotarod test (Rotarod performance): promotes far less catalepsy than the known antipsychotic Clozapine at efficacious doses; fraction unbound (plasma protein [8]): 0.042; fraction unbound (plasma protein [10]): 0.086
O=C(NC(c1ccc(Cl)cc1)c1ccccn1)C1CCN(CCOc2ccc(F)cc2F)CC1 (stereo not shown) [Compound 115, N-((4-chlorophenyl)(pyridin-2-yl)methyl)-1-(2-(2,4-difluorophenoxy)ethyl)piperidine-4-carboxamide] | > 30000 | 1000 to 10000 | > 30000 |  | 26% | 100 to 1000 | 91.2% | 220 (≈ 107 µg/mL) | 86.2% | 30.4 | 11.5 | 77 | 98.0% | 63 | 0.015 | 0.005 | 0.008 | 

More lines, main results first:

EC50 (human D2R/β-arrestin [2]) [nM] | IC50 (human D2R/β-arrestin [3]) [nM] | IC50 (human D2R/β-arrestin [4]) [nM] | Ki (D2) [nM] | Microsomal Stability: % remaining after 60 minutes [5] | EC50 (human D2R/β-arrestin [6]) [nM] | Plasma Stability: % remaining after 5 hours (Plasma stability, human) | solubility (Solubility in PBS) [µM] | Plasma Stability: % remaining after 5 hours (Plasma stability, mouse) | Caco2 A-B (Caco2) | Caco2 B-A (Caco2) | Microsomal Stability: % remaining after 60 minutes [9] [%] | Plasma Stability: % remaining after 5 hours (Plasma stability, rat) | Microsomal Stability: % remaining after 60 minutes [11] [%] | fraction unbound [12] | fraction unbound [13] | fraction unbound [14] | SMILES | other results
> 30000 | 100 to 1000 | < 100 | 100 to 1000 | 6% | > 30000 | h100, m100, r100% |  | h100, m100, r100% |  |  | 20 | h100, m100, r100% | 63 | 0.023 | 0.005 | 0.014 | Clc1ccc(C(NCC2CCN(CCOc3ccccc3)CC2)c2ccccn2)cc1 (stereo not shown) [Compound 114, 1-(4-chlorophenyl)-N-((1-(2-phenoxyethyl)piperidin-4-yl)methyl)-1-(pyridin-2-yl)methanamine] | 
> 30000 | < 100 | < 100 | 100 to 1000 | 7% | 10000 to 30000 | 99.7% | 10.5 (≈ 5.09 µg/mL) | 100% | 15.1 | 2.4 | 35 | 88.1% | 46 | 0.008 | 0.006 | 0.007 | O=C(NC(c1ccc(Cl)cc1)c1ccccn1)C1CCN(CCOc2ccccc2Cl)CC1 (stereo not shown) [Compound 66, 1-(2-(2-chlorophenoxy)ethyl)-N-((4-chlorophenyl)(pyridin-2-yl)methyl)piperidine-4-carboxamide] | 
